Blank lines part the entries; values can stand above or below the molecule they belong to.
Experiments:
[1] = target: T1, glutathione-S-transferase (GST) tagged LXRalpha LBD (ligand binding domain) (Homo sapiens, UniProt Q13133); experiment: LanthaScreen TR-FRET Liver X Receptor Coactivator Assay, LXR alpha-LBD; assay type: biochemical; settings: for Emax: efficacy in relation to reference dual agonist T1317, read-out: LXR alpha activity at max dose (%) (Emax); for EC50 / LXR alpha IP (nM): potency (Inflection Point) of co-activator recruitment, TR-FRET; for EC50: read-out: LXR alpha IP
T1 construct: purchased Invitrogen pv4655
T1 sequence (Q13133 209-447 limits assumed): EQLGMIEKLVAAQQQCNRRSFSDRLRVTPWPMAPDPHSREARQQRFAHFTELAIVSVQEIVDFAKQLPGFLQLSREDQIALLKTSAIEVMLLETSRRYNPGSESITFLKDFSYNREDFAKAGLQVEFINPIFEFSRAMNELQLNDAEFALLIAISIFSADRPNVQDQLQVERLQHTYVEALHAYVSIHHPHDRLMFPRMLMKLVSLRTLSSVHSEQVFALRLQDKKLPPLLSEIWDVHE
Procedure: (§1) While running the LanthaScreen™ TR-FRET Liver X Receptor Coactivator Assay, LXR alpha-LBD or LXR beta-LBD was added to ligand test compounds followed by addition of a mixture of a fluorescein-labelled coactivator peptide and terbium-conjugated anti-GST antibody. After an incubation period at room temperature, TR-FRET (time-resolved fluorescence resonance energy transfer) was measured using a filter-based instrument capable of TR-FRET, e.g. PerkinElmer Envision.

[2] = target: T2, glutathione-S-transferase (GST) tagged LXRbeta LBD (ligand binding domain) (Homo sapiens, UniProt P55055); experiment: LanthaScreen TR-FRET Liver X Receptor Coactivator Assay, LXR beta-LBD; assay type: biochemical; settings: for Emax: efficacy in relation to reference dual agonist T1317, read-out: LXR beta activity at max dose (%) (Emax); for EC50: potency (Inflection Point) of co-activator recruitment, TR-FRET, read-out: LXR beta IP
T2 construct: purchased Invitrogen pv4658.pps
T2 sequence (P55055 222-460 limits assumed): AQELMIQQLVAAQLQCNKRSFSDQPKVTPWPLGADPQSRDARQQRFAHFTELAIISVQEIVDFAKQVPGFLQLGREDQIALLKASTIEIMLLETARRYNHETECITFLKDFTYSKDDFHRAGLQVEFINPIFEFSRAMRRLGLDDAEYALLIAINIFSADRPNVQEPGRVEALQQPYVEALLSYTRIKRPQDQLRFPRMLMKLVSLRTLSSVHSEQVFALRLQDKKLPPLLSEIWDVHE
Procedure: as §1

Compound: CN(C)C(=O)c1ccc(-c2cnc(N3CCN(C(=O)Cc4cn5ccsc5n4)CC3)c(C#N)c2)cc1Cl [Example 2-24, 2-chloro-4-{5-cyano-6-[4-(imidazo[2,1-b][1,3]thiazol-6-ylacetyl)piperazin-1-yl]pyridin-3-yl}-N,N-dimethylbenzamide]
Emax [1]: 42% | EC50 [1]: 29.6 µM | Emax [2]: 104% | EC50 [2]: 463 nM

Compound: CCCC(O)(C(=O)N1CCN(c2ncc(-c3ccc(C(=O)N(C)C)c(Cl)c3)cc2C#N)CC1)C(F)(F)F (stereo not drawn) [Example 2-25, 2-chloro-4-(5-cyano-6-{4-[2-hydroxy-2-(trifluoromethyl)pentanoyl]piperazin-1-yl}pyridin-3-yl)-N,N-dimethylbenzamide]
Emax [1]: 53% | EC50 [1]: 4.15 µM | Emax [2]: 100% | EC50 [2]: 94 nM

Compound: CN(C)C(=O)c1ccc(-c2cnc(N3CCN(C(=O)C4(c5ccccc5)CCCC4)CC3)c(C#N)c2)cc1Cl [Example 2-26, 2-chloro-4-(5-cyano-6-{4-[(1-phenylcyclopentyl)carbonyl]piperazin-1-yl}pyridin-3-yl)-N,N-dimethylbenzamide]
Emax [1]: 25% | EC50 [1]: 1.99 µM | Emax [2]: 84% | EC50 [2]: 43 nM

Compound: CN(C)C(=O)c1ccc(-c2ccc(N3CCN(C(=O)[C@](O)(c4ccccc4)C(F)(F)F)CC3)cc2)cc1Cl [Example 2-27, 3-chloro-N,N-dimethyl-4′-{4-[(2R)-3,3,3-trifluoro-2-hydroxy-2-phenylpropanoyl]piperazin-1-yl}biphenyl-4-carboxamide]
Emax [1]: 14% | LXR alpha IP (nM) [1]: No IP | Emax [2]: 80% | EC50 [2]: 226 nM

Compound: CNC(=O)c1ccc(-c2cnc(N3CCN(C(=O)[C@](O)(c4ccccc4)C(F)(F)F)CC3)c(C#N)c2)cc1Cl [Example 2-28, 2-chloro-4-(5-cyano-6-{4-[(2R)-3,3,3-trifluoro-2-hydroxy-2-phenylpropanoyl]piperazin-1-yl}pyridin-3-yl)-N-methylbenzamide]
Emax [1]: 30% | EC50 [1]: 1.93 µM | Emax [2]: 98% | EC50 [2]: 12 nM

Compound: CN(C)C(=O)c1ccc(-c2cnc(N3CCN(C(=O)C4(c5ccccc5F)CCCC4)CC3)c(C#N)c2)cc1Cl [Example 2-29, 2-chloro-4-[5-cyano-6-(4-{[1-(2-fluorophenyl)cyclopentyl]carbonyl}piperazin-1-yl)pyridin-3-yl]-N,N-dimethylbenzamide]
Emax [1]: 57% | EC50 [1]: 4.23 µM | Emax [2]: 93% | EC50 [2]: 15 nM

Compound: CN(C)C(=O)c1ccc(-c2cnc(N3CCN(C(=O)C(O)(C(F)(F)F)C(F)(F)F)CC3)c(C#N)c2)cc1Cl [Example 2-30, 2-chloro-4-(5-cyano-6-{4-[3,3,3-trifluoro-2-hydroxy-2-(trifluoromethyl)propanoyl]piperazin-1-yl}pyridin-3-yl)-N,N-dimethylbenzamide]
Emax [1]: 66% | EC50 [1]: 5.29 µM | Emax [2]: 125% | EC50 [2]: 6 nM

Compound: CN(C)C(=O)c1ccc(-c2cnc(N3CCN(C(=O)[C@@](O)(c4ccccc4)C(F)(F)F)CC3)c(C#N)c2)cc1Cl [Example 2-31, 2-chloro-4-(5-cyano-6-{4-[(2S)-3,3,3-trifluoro-2-hydroxy-2-phenylpropanoyl]piperazin-1-yl}pyridin-3-yl)-N,N-dimethylbenzamide]
Emax [1]: 12% | EC50 [1]: 7.29 µM | Emax [2]: 68% | EC50 [2]: 307 nM

Compound: CN(C)C(=O)c1ccc(-c2cnc(N3CCN(C(=O)C(O)(c4ccccc4)C(F)(F)F)CC3)c(C#N)c2)cc1Cl (stereo not drawn) [Example 2-32, 2-chloro-4-{5-cyano-6-[4-(3,3,3-trifluoro-2-hydroxy-2-phenylpropanoyl)piperazin-1-yl]pyridin-3-yl}-N,N-dimethylbenzamide]
Emax [1]: 37% | EC50 [1]: 3.05 µM | Emax [2]: 98% | EC50 [2]: 4 nM

Compound: CN(C)C(=O)c1ccc(-c2cnc(N3CCN(C(=O)C(O)(C4CCCCC4)C(F)(F)F)CC3)c(C#N)c2)cc1Cl (stereo not drawn) [Example 2-33, 2-chloro-4-{5-cyano-6-[4-(2-cyclohexyl-3,3,3-trifluoro-2-hydroxypropanoyl)piperazin-1-yl]pyridin-3-yl}-N,N-dimethylbenzamide]
Emax [1]: 27% | EC50 [1]: 3.29 µM | Emax [2]: 115% | EC50 [2]: 162 nM

Compound: CN(C)C(=O)c1ccc(-c2cnc(N3CCN(C(=O)C4(c5ccc(Cl)cc5Cl)CC4)CC3)c(C#N)c2)cc1Cl [Example 2-34, 2-chloro-4-[5-cyano-6-(4-{[1-(2,4-dichlorophenyl)cyclopropyl]carbonyl}piperazin-1-yl)pyridin-3-yl]-N,N-dimethylbenzamide]
Emax [1]: 49% | EC50 [1]: 12.7 µM | Emax [2]: 88% | EC50 [2]: 25 nM

Compound: CO[C@@](C(=O)N1CCN(c2ncc(-c3ccc(C(=O)N(C)C)c(Cl)c3)cc2C#N)CC1)(c1ccccc1)C(F)(F)F [Example 2-35, 2-chloro-4-(5-cyano-6-{4-[(2R)-3,3,3-trifluoro-2-methoxy-2-phenylpropanoyl]piperazin-1-yl}pyridin-3-yl)-N,N-dimethylbenzamide]
Emax [1]: 62% | EC50 [1]: 54.1 µM | Emax [2]: 70% | EC50 [2]: 75 nM

Compound: CCCC(O)(C(=O)N1CCN(c2ncc(-c3ccc(C(=O)N(C)C)c(Cl)c3)cc2C#N)CC1)C(F)(F)C(F)(F)F (stereo not drawn) [Example 2-36, 2-chloro-4-(5-cyano-6-{4-[2-hydroxy-2-(pentafluoroethyl)pentanoyl]piperazin-1-yl}pyridin-3-yl)-N,N-dimethylbenzamide]
Emax [1]: 36% | EC50 [1]: 5.13 µM | Emax [2]: 81% | EC50 [2]: 205 nM

Compound: CN(C)C(=O)c1ccc(-c2cnc(N3CCN(C(=O)C(O)(CCc4ccccc4)C(F)(F)F)CC3)c(C#N)c2)cc1Cl (stereo not drawn) [Example 2-37, 2-chloro-4-(5-cyano-6-{4-[2-hydroxy-4-phenyl-2-(trifluoromethyl)butanoyl]piperazin-1-yl}pyridin-3-yl)-N,N-dimethylbenzamide]
Emax [1]: 55% | EC50 [1]: 97.6 µM | Emax [2]: 58% | EC50 [2]: 735 nM

Compound: CN(C)C(=O)c1ccc(-c2cnc(N3CCN(C(=O)C(O)(c4ccccc4Cl)C(F)(F)F)CC3)c(C#N)c2)cc1Cl (stereo not drawn) [Example 2-38, 2-chloro-4-(6-{4-[2-(2-chlorophenyl)-3,3,3-trifluoro-2-hydroxypropanoyl]piperazin-1-yl}-5-cyanopyridin-3-yl)-N,N-dimethylbenzamide]
Emax [1]: 18% | EC50 [1]: 0.292 µM | Emax [2]: 69% | EC50 [2]: 13 nM

The remaining lines, values ahead:

Emax [1]: 60% | EC50 [1]: 2.31 µM | Emax [2]: 119% | EC50 [2]: 12 nM
Compound: CN(C)C(=O)c1ccc(-c2cnc(N3CCN(C(=O)OCc4c(Cl)cccc4Cl)CC3)c(C#N)c2)cc1Cl [Example 3-1, 2,6-dichlorobenzyl4-{5-[3-chloro-4-(dimethylcarbamoyl)phenyl]-3-cyanopyridin-2-yl}piperazine-1-carboxylate]

Emax [1]: 19% | LXR alpha IP (nM) [1]: No IP | Emax [2]: 41% | EC50 [2]: 1560 nM
Compound: CC(C)COC(=O)N1CCN(c2ncc(-c3ccc(C(=O)N(C)C)c(Cl)c3)cc2C#N)CC1 [Example 3-2, 2-methylpropyl 4-{5-[3-chloro-4-(dimethylcarbamoyl)phenyl]-3-cyanopyridin-2-yl}piperazine-1-carboxylate]

Emax [1]: 42% | EC50 [1]: 19.8 µM | Emax [2]: 62% | EC50 [2]: 217 nM
Compound: CN(C)C(=O)c1ccc(-c2cnc(N3CCN(C(=O)OCc4cncs4)CC3)c(C#N)c2)cc1Cl [Example 3-3, 1,3-thiazol-5-ylmethyl 4-{5-[3-chloro-4-(dimethylcarbamoyl)phenyl]-3-cyanopyridin-2-yl}piperazine-1-carboxylate]

Emax [1]: 122% | EC50 [1]: 2.82 µM | Emax [2]: 86% | EC50 [2]: 87 nM
Compound: Cc1ccccc1COC(=O)N1CCN(c2ncc(-c3ccc(C(=O)N(C)C)c(Cl)c3)cc2C#N)CC1 [Example 3-4, 2-methylbenzyl 4-{5-[3-chloro-4-(dimethylcarbamoyl)phenyl]-3-cyanopyridin-2-yl}piperazine-1-carboxylate]

Emax [1]: 57% | EC50 [1]: 1.34 µM | Emax [2]: 97% | EC50 [2]: 56 nM
Compound: Cc1cccc(COC(=O)N2CCN(c3ncc(-c4ccc(C(=O)N(C)C)c(Cl)c4)cc3C#N)CC2)c1 [Example 3-5, 3-methylbenzyl 4-{5-[3-chloro-4-(dimethylcarbamoyl)phenyl]-3-cyanopyridin-2-yl}piperazine-1-carboxylate]

Emax [1]: 50% | EC50 [1]: 6.61 µM | Emax [2]: 92% | EC50 [2]: 21 nM
Compound: CN(C)C(=O)c1ccc(-c2cnc(N3CCN(C(=O)OCc4ccccc4F)CC3)c(C#N)c2)cc1Cl [Example 3-6, 2-fluorobenzyl 4-{5-[3-chloro-4-(dimethylcarbamoyl)phenyl]-3-cyanopyridin-2-yl}piperazine-1-carboxylate]

— US10239849B2 (Merck Sharp & Dohme Corp., priority 2015, dated 2019)
